Literature values in US8293900B2, “Acylated spiropiperidine derivatives as melanocortin-4 receptor modulators” (Merck Sharp & Dohme Corp, priority 2005, dated 2012).

Assays:
[1] = oral route
[2] = injected intramuscularly or subcutaneously, males with psychogenic erectile dysfunction

Substance: Ac-Nle-c[Asp-His-DPhe-Arg-Trp-Lys]-NH2 [MT-II]
- absorption into the systemic circulation [1]: not absorbed into the systemic circulation
- response rate [2]: 75%
